Where a SMILES comes first, the peptide text is derived from it. [ ]: non-standard residue; d: D form. Aoe = N[C@@H](CCCCCC(=O)[C@@H]1CO1)C(=O)O
Key:
J77 cells [1] = assay: CD3 clustering in the central region of the immunological synapse; assay type: cell-based, human; conditions: for reversion of the prevention of CD3 clustering caused by HDAC6-GFP: J77 cells transfected with HDAC6-GFP, SEE-marked Raji cells, 30 minutes at 37°C, Figures 5A and B
J77 cells [2] = assay: LFA-1 organization in the immunological synapse peripheral ring; assay type: cell-based, human; conditions: J77 cells with SEE-marked Raji cells, 30 minutes at 37°C; Figure 6 and data not shown
J77 cells [3] = assay: Microtubule organizing centre (MTOC) translocation assay; assay type: cell-based, human; conditions: for restoration of MTOC translocation in cells transfected with HDAC6-GFP: J77 cells transfected with HDAC6-GFP, SEE-pulsed Raji cells, 3 µM TSA, Figures 7A and B; for MTOC translocation: Figure 7B
Procedure: A 1:1 ratio of Raji cells and T cells transfected with HDAC6 were placed in contact for 15 minutes at 37°C in RPMI medium. The cell conjugates were then gently resuspended and plated on PLL-coated cover slips for 15 more minutes as previously described (Sancho et al., 2002). The cell conjugates were then fixed, permeabilized and stained for α-tubulin for the purpose of observation by immunofluorescence microscopy. The MTOC was considered to be redirected when it was in close proximity with the T cell plasma membrane, between the cell nucleus and the contact area with the antigen-presenting cell. At least 200 cell conjugates were counted in each experiment.

HDAC6 = target: T1, HDAC6 (Homo sapiens, UniProt Q9UBN7); conditions: CD4+ T lymphocytes and J77 cells pre-treated for 30 minutes (3µM TSA or 5 mM sodium butyrate), SEE-pulsed Raji cells; Figure 3B
T1 sequence (Q9UBN7 1-1215): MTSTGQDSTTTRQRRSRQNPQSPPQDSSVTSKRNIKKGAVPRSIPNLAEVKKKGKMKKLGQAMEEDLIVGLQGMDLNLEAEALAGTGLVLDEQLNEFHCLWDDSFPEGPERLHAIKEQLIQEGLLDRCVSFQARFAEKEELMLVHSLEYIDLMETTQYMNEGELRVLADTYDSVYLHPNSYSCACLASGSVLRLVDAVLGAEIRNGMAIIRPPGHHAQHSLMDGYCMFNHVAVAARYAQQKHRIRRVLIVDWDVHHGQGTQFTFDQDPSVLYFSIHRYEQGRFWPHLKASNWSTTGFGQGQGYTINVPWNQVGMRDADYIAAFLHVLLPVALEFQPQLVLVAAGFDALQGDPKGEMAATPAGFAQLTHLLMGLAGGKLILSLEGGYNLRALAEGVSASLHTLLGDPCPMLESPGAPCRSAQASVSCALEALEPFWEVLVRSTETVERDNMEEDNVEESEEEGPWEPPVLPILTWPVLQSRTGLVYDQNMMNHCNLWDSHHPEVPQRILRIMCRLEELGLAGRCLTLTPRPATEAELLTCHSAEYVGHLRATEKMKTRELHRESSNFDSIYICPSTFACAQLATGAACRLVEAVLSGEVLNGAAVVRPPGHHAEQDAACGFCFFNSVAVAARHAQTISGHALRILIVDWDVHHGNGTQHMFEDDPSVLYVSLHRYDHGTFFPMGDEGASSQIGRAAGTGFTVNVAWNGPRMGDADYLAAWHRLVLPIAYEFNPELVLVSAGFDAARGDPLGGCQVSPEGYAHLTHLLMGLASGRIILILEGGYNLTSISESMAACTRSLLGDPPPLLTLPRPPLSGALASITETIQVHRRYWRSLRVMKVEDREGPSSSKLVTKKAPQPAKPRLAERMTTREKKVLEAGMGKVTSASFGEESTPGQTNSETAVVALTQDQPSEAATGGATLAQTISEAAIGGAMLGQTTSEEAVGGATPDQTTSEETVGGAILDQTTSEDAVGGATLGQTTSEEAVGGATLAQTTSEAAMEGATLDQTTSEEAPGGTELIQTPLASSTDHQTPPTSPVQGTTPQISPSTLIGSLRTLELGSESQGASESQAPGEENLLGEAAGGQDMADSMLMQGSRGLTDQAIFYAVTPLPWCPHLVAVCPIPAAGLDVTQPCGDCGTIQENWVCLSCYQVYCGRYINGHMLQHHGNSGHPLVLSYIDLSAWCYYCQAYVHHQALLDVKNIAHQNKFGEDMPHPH

[4] = treatment effect in the quantitative analysis

Question: For `CC(/C=C/C(=O)NO)=C\[C@@H](C)C(=O)c1ccc(N(C)C)cc1` [TSA, Trichostatin A], which “kinetics of CD3 clustering in the central region of the immunological synapse” value (J77 cells [1]; J77 cells pre-treated, Raji cells marked with 1µg/ml SEE, different times, Figure 5C) is on record?
Answer: Its value is “accelerated”.

Question: And the “reversion of the prevention of CD3 clustering caused by HDAC6-GFP” value (J77 cells [1])?
Answer: The value was “reverted”.

Question: And the CD3 clustering (J77 cells [1]; pretreated cells in contact with SEE-marked Raji cells, Figure 5B)?
Answer: Its CD3 clustering is “slight increase”.

Question: What about the “LFA-1 organization in the peripheral ring of the immunological synapse” value (J77 cells [2]) of the same compound?
Answer: The value was “well organized”.

Question: And the “restoration of MTOC translocation in cells transfected with HDAC6-GFP” value (J77 cells [3])?
Answer: Its value is “restored normal translocation”.

Question: And the “kinetics of MTOC translocation” value (J77 cells [3]; cell conjugates between J77 and Raji cells, different times, Figure 7C)?
Answer: The value was “accelerates”.

Question: What about the MTOC translocation (J77 cells [3]; peripheral blood CD4+ lymphocytes with SEE-pulsed Raji cells) of the same compound?
Answer: Its MTOC translocation is “increases”.

Question: What does the source list for `O=C1N[C@@H](Cc2ccccc2)C(=O)N2CCC[C@@H]2C(=O)N[C@@H](CCCCCC(=O)[C@@H]2CO2)C(=O)N[C@H]1Cc1ccccc1` [trapoxin B] (cyclo(FF[dP][Aoe]))?
Answer: reversion of the prevention of CD3 clustering caused by HDAC6-GFP (J77 cells [1]): not; restoration of MTOC translocation in cells transfected with HDAC6-GFP (J77 cells [3]): not; MTOC translocation (J77 cells [3]; [4]): did not affect

Question: With `CCCC(=O)[O-].[Na+]` [sodium butyrate] as the compound, how does the “reversion of the prevention of CD3 clustering caused by HDAC6-GFP” value (J77 cells [1]) read?
Answer: Its value is “not”.

Question: And the “acetylated tubulin staining in the contact site with antigen-presenting cells” value (HDAC6)?
Answer: The value was “weak”.

Question: And the “restoration of MTOC translocation in cells transfected with HDAC6-GFP” value (J77 cells [3])?
Answer: Its value is “not”.

Question: And the MTOC translocation (J77 cells [3]; [4])?
Answer: The MTOC translocation was “did not affect”.

Source: EP1707622A1, “USE OF COMPOUNDS THAT REGULATE HDAC6 TUBULIN DEACETYLASE ACTIVITY IN THE PREPARATION OF PHARMACEUTICAL COMPOSITIONS, METHOD OF IDENTIFYING THE AFOR[…], SAID PHARMACEUTICAL COMPOUNDS AND APPLICATIONS THEREOF” (UNIVERSIDAD AUTONOMA DE MADRID CIUDAD UNIVERSITARIA …, priority 2004, dated 2005)
